Experiments:
cells [1] = conditions: Homo sapiens, HL-60, 48 h
Description: Growth inhibition of human HL60 cells after 48 hrs by XTT assay

[2] = Retention time of the compound by HPLC method; format: physicochemical
K562 = test: cells; conditions: Homo sapiens, K562, 48 h
Description: Growth inhibition of human K562 cells after 48 hrs by XTT assay

[3] = target: T1, Receptor-type tyrosine-protein kinase FLT3 (Homo sapiens, UniProt P36888)
T1 sequence (P36888 whole entry): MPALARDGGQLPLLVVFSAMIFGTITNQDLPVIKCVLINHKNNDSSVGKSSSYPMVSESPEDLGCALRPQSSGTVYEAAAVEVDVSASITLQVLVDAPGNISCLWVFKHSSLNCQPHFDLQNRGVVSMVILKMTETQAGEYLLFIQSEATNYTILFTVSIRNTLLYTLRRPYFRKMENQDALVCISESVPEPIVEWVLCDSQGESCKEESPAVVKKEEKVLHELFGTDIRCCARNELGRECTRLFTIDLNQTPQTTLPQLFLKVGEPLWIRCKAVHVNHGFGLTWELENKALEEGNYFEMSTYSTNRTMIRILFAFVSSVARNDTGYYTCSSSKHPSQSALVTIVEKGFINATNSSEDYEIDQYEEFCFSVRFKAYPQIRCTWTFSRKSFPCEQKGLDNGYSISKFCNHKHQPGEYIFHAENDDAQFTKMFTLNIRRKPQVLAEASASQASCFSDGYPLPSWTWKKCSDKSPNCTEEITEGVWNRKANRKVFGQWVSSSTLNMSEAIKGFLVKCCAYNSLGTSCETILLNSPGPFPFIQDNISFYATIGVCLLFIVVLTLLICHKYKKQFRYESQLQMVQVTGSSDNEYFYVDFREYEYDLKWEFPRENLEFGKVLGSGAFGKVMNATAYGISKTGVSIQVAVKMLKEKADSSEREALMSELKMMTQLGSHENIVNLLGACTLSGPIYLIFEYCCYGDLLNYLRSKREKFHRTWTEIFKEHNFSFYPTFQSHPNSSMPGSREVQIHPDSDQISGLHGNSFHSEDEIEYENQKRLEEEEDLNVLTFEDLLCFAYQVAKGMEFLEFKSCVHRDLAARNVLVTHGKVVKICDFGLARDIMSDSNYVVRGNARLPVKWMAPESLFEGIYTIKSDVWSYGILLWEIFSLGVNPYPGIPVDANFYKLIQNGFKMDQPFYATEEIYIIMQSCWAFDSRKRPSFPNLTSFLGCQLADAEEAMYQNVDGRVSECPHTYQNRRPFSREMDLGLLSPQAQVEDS
Description: Inhibition of human FLT3 using 10 uM ATP

cells [4] = conditions: Homo sapiens, THP-1, 48 h
Description: Growth inhibition of human THP1 cells after 48 hrs by XTT assay

cells [5] = conditions: Homo sapiens, MV4-11, 48 h
Description: Growth inhibition of human MV411 cells after 48 hrs by XTT assay

SMILES | GI50 (cells [1]) [nM] | Retention_time [2] [min] | GI50 (K562) [nM] | IC50 ([3]; read-out: IC50) [nM] | GI50 (cells [4]) [nM] | GI50 (cells [5]) [nM] | IC50 [3]
CC1=CC(=O)N(Nc2nc(-c3cccs3)nc3scc(-c4cccs4)c23)C1=O | 746 | 8.11 | 5550 | 69 | 2670 | 320 | –
CC1=CC(=O)N(Nc2nc(-c3ccccc3)nc3scc(-c4cccs4)c23)C1=O | 862 | 6.15 | 6300 | 1600 | 3730 | 836 | –
CC1=CC(=O)N(Nc2nc(-c3cccs3)nc3scc(-c4ccccc4)c23)C1=O | 758 | 8.39 | 74 | – | 155 | 233 | –
CC1=CC(=O)N(Nc2nc(-c3ccc(N(C)C)cc3)nc3scc(-c4ccccc4)c23)C1=O | 2190 | 10.86 | 1740 | – | 1630 | 755 | Not Active
CC1=CC(=O)N(Nc2nc(-c3ccc(N)cc3)nc3scc(-c4ccccc4)c23)C1=O | 3710 | 5.16 | 8160 | – | 4110 | 2100 | –
COc1sc2nc(-c3cccs3)nc(NN3C(=O)C=C(C)C3=O)c2c1C | 240 | 5.61 | 1460 | – | 906 | 100 | –
COC(=O)c1sc2nc(-c3cccs3)nc(NN3C(=O)C=C(C)C3=O)c2c1C | 136 | 6.04 | 30 | – | 172 | 86 | –
COC(=O)Cc1sc2nc(-c3cccs3)nc(NN3C(=O)C=C(C)C3=O)c2c1C | 656 | – | 483 | – | 2900 | 91 | –
CC1=CC(=O)N(Nc2nc(-c3cccs3)nc3sc(CO)c(C)c23)C1=O | 712 | 10.19 | 3840 | – | 2600 | 92 | –
COCc1sc2nc(-c3cccs3)nc(NN3C(=O)C=C(C)C3=O)c2c1C | 266 | 10.19 | 1260 | – | 1780 | 115 | –
CC1=CC(=O)N(Nc2nc(-c3cccs3)nc3sc(C(N)=O)c(C)c23)C1=O | 7800 | 5.72 | 2780 | – | 2690 | 193 | –
COc1ccc(-c2sc3nc(-c4cccs4)nc(NN4C(=O)C=C(C)C4=O)c3c2C)cc1 | 624 | 10.06 | 154 | – | 902 | 135 | –
CC1=CC(=O)N(Nc2nc(-c3cccs3)nc3sc(-c4ccc(O)cc4)c(C)c23)C1=O | 221 | 4.93 | 145 | – | 600 | 131 | –
CC1=CC(=O)N(Nc2nc(-c3cccs3)nc3sc(-c4cccc(O)c4)c(C)c23)C1=O | 383 | – | 3 | – | 107 | 123 | –
CC1=CC(=O)N(Nc2nc(-c3cccs3)nc3sc(-c4ccc([N+](=O)[O-])cc4)c(C)c23)C1=O | 418 | 9.44 | 1880 | – | 846 | 112 | –
CC1=CC(=O)N(Nc2nc(-c3cccs3)nc3sc(Cc4ccc(O)cc4)c(C)c23)C1=O | 213 | – | 880 | – | 948 | 103 | –
NNc1nc(-c2cccs2)nc2scc(-c3cccs3)c12 | > 10000 | – | > 10000 | – | > 10000 | > 10000 | –
CC1=CC(=O)N(Nc2nc(-c3ccc(C)s3)nc3scc(-c4cccs4)c23)C1=O | 403 | 6.17 | 1920 | – | 2800 | 775 | –
CC1=CC(=O)N(Nc2nc(Cc3cccs3)nc3scc(-c4cccs4)c23)C1=O | 725 | – | > 10000 | – | 6260 | 2010 | Not Active
CC1=CC(=O)N(Nc2nc(Cc3ccccc3)nc3scc(-c4cccs4)c23)C1=O | 1520 | 7.09 | 3520 | – | 6660 | 3830 | Not Active
COc1ccc(-c2nc(NN3C(=O)C=C(C)C3=O)c3c(-c4ccccc4)csc3n2)cc1 | 1310 | 9.76 | 703 | – | 2200 | 407 | Not Active
Cl.c1csc(-c2nc(N3CCNCC3)c3c(-c4cccs4)csc3n2)c1 | > 10000 | 4.39 | > 10000 | – | > 10000 | > 10000 | –
COc1cc2c(N3CCN(C(=O)Nc4ccc(OC(C)C)cc4)CC3)ncnc2cc1OCCCN1CCCCC1 [TANDUTINIB] | > 10000 | – | > 10000 | – | > 10000 | 8760 | –
